Source: PubChem BioAssay (NCI)
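Dose response: 5 concentrations. Exposure: 48 h. Format: 96-well plates. Endpoint: linear interpolation; highest concentration if not reached. GI50 is the concentration that inhibits growth by half. At the TGI there is no net growth.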

Key:
Assay in all cases: NCI anticancer screen, dose series, 48 h
[1] = system: TK-10 renal
[2] = system: A498 renal
[3] = system: UO-31 renal
[4] = system: HCT-116 colon
[5] = system: HOP-62 NSCLC
[6] = system: T-47D breast
[7] = system: OVCAR-8 ovarian
[8] = system: OVCAR-5 ovarian
[9] = system: RXF 393 renal
[10] = system: MOLT-4 leukemia
[11] = system: EKVX NSCLC
[12] = system: CCRF-CEM leukemia
[13] = system: NCI/ADR-RES ovarian
[14] = system: COLO 205 colon
[15] = system: SF-268 CNS
[16] = system: SK-OV-3 ovarian
[17] = system: NCI-H522 lung
[18] = system: SK-MEL-2 melanoma
[19] = system: SF-295 CNS
[20] = system: NCI-H23 lung
[21] = system: HT29 colon
[22] = system: RPMI-8226 leukemia
[23] = system: SK-MEL-5 melanoma
[24] = system: 786-0 renal
[25] = system: HOP-92 NSCLC
[26] = system: MDA-MB-231 breast
[27] = system: SN12C renal
[28] = system: HS 578T breast
[29] = system: BT-549 breast
[30] = system: OVCAR-3 ovarian
[31] = system: UACC-62 melanoma
[32] = system: M14 melanoma
[33] = system: HL-60(TB) leukemia
[34] = system: ACHN renal
[35] = system: KM12 colon
[36] = system: UACC-257 melanoma
[37] = system: MDA-MB-435
[38] = system: SF-539 CNS
[39] = system: SK-MEL-28 melanoma
[40] = system: A549 NSCLC
[41] = system: NCI-H226 lung
[42] = system: PC-3 prostate
[43] = system: LOX IMVI melanoma
[44] = system: CAKI-1 renal
[45] = system: MALME-3M melanoma
[46] = system: IGROV1 ovarian
[47] = system: DU-145 prostate
[48] = system: NCI-H460 lung
[49] = system: SW-620 colon
[50] = system: SNB-19 CNS
[51] = system: MCF7 breast
[52] = system: OVCAR-4 ovarian
[53] = system: SNB-75 CNS
[54] = system: HCC-2998 colon
[55] = system: SR leukemia
[56] = system: U251 CNS

Cc1ccc2c(n1)C(=O)C(Cl)=C(Nc1cc(C(F)(F)F)cc(C(F)(F)F)c1)C2=O
GI50 [1]: 1.88 µM | TGI [1]: 3.31 µM | GI50 [2]: 8.72 µM | TGI [2]: 22 µM | GI50 [3]: 1.41 µM | TGI [3]: 2.83 µM | GI50 [4]: 1.43 µM | TGI [4]: 2.94 µM | GI50 [5]: 15.9 µM | TGI [5]: 31.3 µM | GI50 [6]: 1.63 µM | TGI [6]: 5.18 µM | GI50 [7]: 4.16 µM | TGI [7]: 24.2 µM | GI50 [8]: 19.4 µM | TGI [8]: 38.4 µM | GI50 [9]: 1.46 µM | TGI [9]: 2.82 µM | GI50 [10]: 0.305 µM | TGI [10]: 1.05 µM | GI50 [11]: 2.22 µM | TGI [11]: 5.45 µM | GI50 [12]: 0.651 µM | TGI [12]: 3.59 µM | GI50 [13]: 2.74 µM | TGI [13]: 8.6 µM | GI50 [14]: 1.93 µM | TGI [14]: 4.31 µM | GI50 [15]: 6.38 µM | TGI [15]: 23.5 µM | GI50 [16]: 13.9 µM | TGI [16]: 27.1 µM | GI50 [17]: 1.95 µM | TGI [17]: 5.97 µM | GI50 [18]: 3.96 µM | TGI [18]: 15.6 µM | GI50 [19]: 12.6 µM | TGI [19]: 25.8 µM | GI50 [20]: 1.92 µM | TGI [20]: 4.94 µM | GI50 [21]: 2.39 µM | TGI [21]: 6.18 µM | GI50 [22]: 1.58 µM | TGI [22]: 5.14 µM | GI50 [23]: 3.28 µM | TGI [23]: 11.4 µM | GI50 [24]: 1.72 µM | TGI [24]: 3.36 µM | GI50 [25]: 1.57 µM | TGI [25]: 3.51 µM | GI50 [26]: 3.54 µM | TGI [26]: 14 µM | GI50 [27]: 4.55 µM | TGI [27]: > 100 µM | GI50 [28]: 10.6 µM | TGI [28]: 76.4 µM | GI50 [29]: 1.86 µM | TGI [29]: 6.61 µM | GI50 [30]: 1.61 µM | TGI [30]: 3.02 µM | GI50 [31]: 4.97 µM | TGI [31]: 19.3 µM | GI50 [32]: 4.24 µM | TGI [32]: 17.9 µM | GI50 [33]: 0.547 µM | TGI [33]: 2.58 µM | GI50 [34]: 1.92 µM | TGI [34]: 3.42 µM | GI50 [35]: 12.3 µM | TGI [35]: 28.9 µM | GI50 [36]: 1.68 µM | TGI [36]: 3.3 µM | GI50 [37]: 4.67 µM | TGI [37]: 16.4 µM | GI50 [38]: 5.4 µM | TGI [38]: 18.3 µM | GI50 [39]: 2.21 µM | TGI [39]: 4.29 µM | GI50 [40]: 16.9 µM | TGI [40]: 38 µM | GI50 [41]: 5.36 µM | TGI [41]: 41.5 µM | GI50 [42]: 5.29 µM | TGI [42]: 20 µM | GI50 [43]: 1.6 µM | TGI [43]: 3.49 µM | GI50 [44]: 1.5 µM | TGI [44]: 2.94 µM | GI50 [45]: 1.67 µM | TGI [45]: 3.58 µM | GI50 [46]: 3.6 µM | TGI [46]: 14.1 µM | GI50 [47]: 2.6 µM | TGI [47]: 6.47 µM | GI50 [48]: 13.7 µM | TGI [48]: 36.8 µM | GI50 [49]: 2.29 µM | TGI [49]: 5.32 µM | GI50 [50]: 13.8 µM | TGI [50]: 40.1 µM | GI50 [51]: 2.13 µM | TGI [51]: 5.45 µM | GI50 [52]: 1.44 µM | TGI [52]: 2.79 µM | GI50 [53]: 9.23 µM | TGI [53]: 22.6 µM | GI50 [54]: 4.61 µM | TGI [54]: 18.2 µM | GI50 [55]: 0.31 µM | TGI [55]: 1.98 µM | GI50 [56]: 10.3 µM | TGI [56]: 23.5 µM
